Source: paper PMC3795654, “Combinatorial Optimization of Cystine-Knot Peptides towards High-Affinity Inhibitors of Human Matriptase-1” (PLoS ONE, 2013)
Where two headings read alike, the source gives them in different places. Where a SMILES comes first, the peptide text is derived from it. Bridges are numbered along the chain shown (N, C = ends).

Columns and labels:
[1] = molecular target: T1, Bovine pancreatic trypsin (Bos taurus, UniProt P00760); assay: Trypsin inhibition assay (substrate-independent Ki); assay type: biochemical; conditions: substrate-independent Ki from Ki app (Morrison equation) and Km; 250 µM substrate; preincubation 30 min RT; read over 30 min; triplicate
T1 construct: purchased Sigma-Aldrich
T1 sequence (P00760 24-246): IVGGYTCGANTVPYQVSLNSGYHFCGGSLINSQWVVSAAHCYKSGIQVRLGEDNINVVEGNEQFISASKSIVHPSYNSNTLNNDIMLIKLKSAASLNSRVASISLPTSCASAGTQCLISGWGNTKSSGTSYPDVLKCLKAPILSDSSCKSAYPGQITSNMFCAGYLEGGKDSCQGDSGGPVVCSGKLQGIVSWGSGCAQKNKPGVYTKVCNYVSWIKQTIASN
Description: (§5) Apparent inhibition constants (Ki ^app) were calculated by fitting the Morrison equation (1) for tight-binding inhibitors to the relative reaction velocity using non-linear regression (Marquardt-Levenberg algorithm, Sigma Plot 11) [63].

Human matriptase-1 [2] = molecular target: T2, Human matriptase-1 (Homo sapiens, UniProt Q9Y5Y6); assay: Matriptase-1 inhibition assay (Ki / Ki app); assay type: biochemical; conditions: substrate-independent Ki from Ki app (Morrison equation) and Km; 250 µM substrate; preincubation 30 min RT; read over 30 min; triplicate; read-out: Ki (Matriptase-1)
T2 construct: made in house
T2 sequence (Q9Y5Y6 615-855 limits assumed): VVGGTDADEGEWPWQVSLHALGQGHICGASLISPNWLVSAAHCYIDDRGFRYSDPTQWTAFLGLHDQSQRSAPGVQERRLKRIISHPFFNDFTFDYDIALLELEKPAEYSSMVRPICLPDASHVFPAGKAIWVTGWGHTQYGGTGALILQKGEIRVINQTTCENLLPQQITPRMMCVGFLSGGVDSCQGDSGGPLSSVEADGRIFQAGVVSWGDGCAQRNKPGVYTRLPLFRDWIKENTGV
Description: (§6) Human matriptase-1 was produced recombinantly, autocatalytically activated and purified as previously reported [35], [49], [51], [60].
as §5

Human matriptase-1 [3] = assay: Matriptase-1 inhibition assay (Ki / Ki app); assay type: biochemical; conditions: ratio of Ki values of Table 1
Description: as §6, §5

thrombin = assay: Selectivity assay, thrombin inhibition; assay type: biochemical; conditions: duplicates; 5 nM protease; no inhibition observed at 10 µM inhibitor concentration
Description: as §5

Hepsin = Hepsin (Homo sapiens, UniProt P05981); assay: biochemical
Chain of Hepsin (P05981 whole entry): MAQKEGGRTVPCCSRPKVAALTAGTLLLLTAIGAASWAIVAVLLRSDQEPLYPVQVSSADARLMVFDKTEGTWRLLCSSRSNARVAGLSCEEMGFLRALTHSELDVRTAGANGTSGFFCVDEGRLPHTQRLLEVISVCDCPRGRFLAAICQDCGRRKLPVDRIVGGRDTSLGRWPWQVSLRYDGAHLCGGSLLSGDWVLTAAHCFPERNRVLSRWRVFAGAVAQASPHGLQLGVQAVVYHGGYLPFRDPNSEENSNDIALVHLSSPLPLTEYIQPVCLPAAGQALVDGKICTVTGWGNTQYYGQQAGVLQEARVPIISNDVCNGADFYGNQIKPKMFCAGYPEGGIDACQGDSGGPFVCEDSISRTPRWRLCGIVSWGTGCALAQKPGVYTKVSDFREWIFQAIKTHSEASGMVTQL
Description: (§1) Human matriptase-1 was produced recombinantly, autocatalytically activated and purified as previously reported, [49], [51], [60]. Bovine pancreatic trypsin, thrombin and uPA were purchased from Sigma-Aldrich and Hepsin from R&D Systems.
(§2) Measurements were carried out in triplicate using a Tecan Genios ELISA reader. The normalized residual proteolytic activity (v/v0) of proteases was determined using substrates Boc-QAR-pNA (250 µM, (pNA stands for para-nitro aniline), Boc-QAR-AMC (250 µM, AMC stands for amino-methyl coumarin) or Spectrozym tPA (250 µM, American Diagnostica, CH3SO2-D-CHT-Gly-Arg-pNA AcOH). Product formation was monitored after preincubation (30 min, RT) with inhibitor at different concentrations over 30 min by measuring the absorbance at 405 nm for pNA substrates or the fluorescence emission for AMC substrates (ex. 360 nm, em. 465 nm), respectively. Selectivity data were carried out in duplicates with final protease concentrations of uPA and thrombin of 5 nM. In case of hepsin 50 mM Tris/HCl pH 9.0 was used as assay buffer.
(§3) Apparent inhibition constants (Ki ^app) were calculated by fitting the Morrison equation (1) for tight-binding inhibitors to the relative reaction velocity using non-linear regression (Marquardt-Levenberg algorithm, Sigma Plot 11). [drawing 1] (1) [drawing 2] (2)
(§4) Substrate-independent inhibition constants Ki were calculated from Ki ^app and Km of the enzyme according to (2). The Michaelis-Menten constant Km for the substrates and proteases were determined previously, [64].

uPA = uPA (Homo sapiens, UniProt P00749); assay: biochemical
Description: as §1, §2, §3, §4

[4] = tested on: uPA activation by matriptase-1 on the surface of PC-3 cells; assay: Cell inhibition assay: uPA activation by matriptase-1 on the surface of PC-3 cells; assay type: cell-based, human
Description: Human prostate cancer cells (PC-3, Merck KGaA) were cultured in DMEM medium with 10% FCS at 37°C and 5% CO2, washed with cation-free PBS and harvested by scraping. 1×10^5 cells were incubated in presence of 250 µM Bz-β-Ala-Gly-Arg-pNA·AcOH (American Diagnostica), which is a specific […] of urokinase, and the inhibitor of interest in defined dilutions overnight. Product formation was monitored at 405 nm before and after incubation in a microplate reader. IC50 was calculated by non-linear regression using SigmaPlot 11.
Urokinase-type plasminogen activator (uPA) causes the degradation of the extracellular matrix and plays a critical role in tumor invasion and metastasis, [73]. It was shown that activation of receptor-bound pro-uPA is affected by matriptase-1, which results in a decreased ability of uPAexpressing tumor cells to invade an extracellular matrix layer upon inhibition of membrane-bound matriptase-1 [72].
For the indirect determination of the IC50 of SOTI Var. 1 and MCoTI Var. 4 on the surface of these cancer cells, the turnover of an uPA substrate was monitored. Pro-uPA is activated through non-inhibited matriptase-1 and substrate turnover was measured and compared to the previously reported small molecule inhibitor S1 of matriptase-1 (Figure 4). In this experimental setting, the MCoTI-based inhibitor Var. […] 4 in this assay.
Figure 4 Inhibition assay of uPA activation by matriptase-1 on the surface of PC-3 cells. Depicted is the logarithmic inhibitor concentration against the absorption at 405 TEXT PRINTED IN THE PICTURE: MCoTI Var.

CC[C@H](C)[C@@H]1NC(=O)[C@@H]2CSSC[C@H](NC(=O)[C@@H](NC(=O)CNC(=O)[C@@H](N)Cc3c[nH]c4ccccc34)C(C)C)C(=O)N3CCC[C@H]3C(=O)N[C@@H](CCCCN)C(=O)N[C@@H](C(C)C)C(=O)N[C@@H](CC(C)C)C(=O)N[C@@H](CCCNC(=N)N)C(=O)N[C@@H](CC(N)=O)C(=O)N[C@H]3CSSC[C@H](NC1=O)C(=O)N[C@@H](CC(C)C)C(=O)NCC(=O)N[C@@H](CC(N)=O)C(=O)NCC(=O)N[C@@H](Cc1ccc(O)cc1)C(=O)N[C@H](C(=O)NCC(N)=O)CSSC[C@H](NC(=O)[C@H](CC(=O)O)NC(=O)[C@H](CO)NC(=O)[C@H](CC(=O)O)NC(=O)[C@H](CCCNC(=N)N)NC(=O)[C@H](CCCNC(=N)N)NC3=O)C(=O)N1CCC[C@H]1C(=O)NCC(=O)N[C@@H](C)C(=O)N2 [MCoTI Var. 4] (H-WGVCPKVLRNCRRDSDCPGACICLGNGYCG-NH2; disulfide 4-21, 11-23, 17-29)
Ki [1]: 35.8 ± 4.7 nM | Ki (Human matriptase-1 [2]): 0.83 ± 0.14 nM | inhibitory activity for matriptase-1 relative to trypsin (Human matriptase-1 [3]): approximately fortyfold higher | Ki (thrombin): > 10000 nM | Ki (Hepsin): > 10000 nM | Ki (Hepsin; read-out: Ki (Hepsin), duplicates, 50 mM Tris/HCl pH 9.0, no inhibition observed at 10 µM inhibitor concentration): > 10000 nM | Ki (uPA): > 10000 nM | IC50 ([4]; 1×10^5 PC-3 cells, 250 µM Bz-β-Ala-Gly-Arg-pNA, overnight, absorbance 405 nm, read-out: IC50 (uPA substrate turnover on PC-3 cells)): 213 nM | potency relative to recently described peptidomimetic small-molecule inhibitors ([4]; PC-3 cells, IC50 comparison (Figure 4)): 10 fold
